Here are results for two molecules from US20070043115A1, “Use of choline to prevent thrombosis associated with total parenteral nutrition” (priority 2005, published 2007).

Like-named read-outs stand apart in the source and are kept apart here.

The procedure of data set [1]: Prior to use, the appropriate amount of choline solution is transferred from the sterile vial and is added to the nutrient solution which typically is contained in a TPN bag.
In data set [2] the test system is plasma levels of homocysteine. Here is the method:
Two female normal volunteers were infused with C-13-labeled choline and plasma levels of homocysteine were determined before and after infusion.

For the molecule `C[N+](C)(C)CCO.[Cl-]` [Choline chloride, choline chloride], the “effects on the TPN solution turbidity, pH, or amino acid concentrations” value in data set [1] (choline chloride added to TPN nutrient solutions) was “no adverse affects”. In data set [1] (various TPN nutrient solutions), the “stable in various TPN nutrient solutions” value is reported as “at least 30 days”.
For the molecule C-13-labeled choline, the “Plasma concentration of homocysteine after infusion” value came to 5.14 µmol/L in data set [2] (first normal volunteer, 6.62 umol/L before infusion) and 6.64 µmol/L in data set [2] (second normal volunteer, 7.47 umol/L before infusion).
